By EC50 is commonly meant the midpoint of the concentration-response curve.

The target of this test is T1, MC4R (Homo sapiens, UniProt P32245).
T1 construct: expressed in transfected cells; host or cells: HEK (Human Embryonic Kidney) permanent expression cell line HEK MC4R-Luc, co-expressing CRE-luciferase
The test can be described thus: MCR agonistic activity (luciferase assay / cAMP accumulation assay) on MC4R. To be noted: HEK cell lines expressing MC4R; method A (CRE-luciferase) or B (cAMP accumulation), not said which; read-out: EC50 value, agonistic activity to MC4R (range per group of Examples). Format: cell-based. Put shortly: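 HEK cells stably expressing MC4R with a CRE-luciferase reporter treated 5 hours at 37 °C with serially diluted agonist (≤1% DMSO); luminescence expressed relative to 10 nM NDP-MSH, EC50 at half-maximal signal. Alternatively, cAMP measured after 30 minutes with compound plus 500 μM IBMX by [3H]-cAMP competition binding.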
A general note: cAMP levels reflect the balance of adenylyl cyclase and phosphodiesterase activity.

T1 sequence (P32245 whole entry, species assumed): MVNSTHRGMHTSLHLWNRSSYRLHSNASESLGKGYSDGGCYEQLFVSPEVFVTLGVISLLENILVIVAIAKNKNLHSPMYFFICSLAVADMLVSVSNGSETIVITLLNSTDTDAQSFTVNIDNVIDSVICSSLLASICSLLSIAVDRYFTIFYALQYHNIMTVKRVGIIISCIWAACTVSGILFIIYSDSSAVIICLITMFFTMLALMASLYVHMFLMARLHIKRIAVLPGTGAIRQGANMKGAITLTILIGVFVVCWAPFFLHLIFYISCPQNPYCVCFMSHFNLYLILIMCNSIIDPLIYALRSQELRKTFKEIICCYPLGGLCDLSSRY

With `CN1CCN(C(=O)[C@@H]2C[C@H](N(C(=O)C(C)(C)C)[C@H]3CC[C@@H](C)CC3)CN2C(=O)[C@@H]2CN(C3CCOCC3)C[C@H]2c2ccc(F)cc2F)CC1` [Example 53, N-{(3S,5S)-1-{[(3S,4R)-4-(2,4-difluorophenyl)-1-(tetrahydro-2H-pyran-4-yl)pyrrolidin-3-yl]carbonyl}-5-[(4-methylpiperazin-1-yl)carbonyl]pyrrolidin-3-yl}-2,2-dimethyl-N-(cis-4-methylcyclohexyl)propanamide], the EC50 was 0.1 to 10 nM.

`CC(=O)N(C1CCC(C)CC1)[C@H]1C[C@H](C(=O)N2CCN(C)CC2)N(C(=O)[C@@H]2CN(C3CCOCC3)C[C@H]2c2ccc(Cl)cc2)C1` (stereo partly drawn) [Example 54, N-{(3S,5R)-1-{[(3S,4R)-4-(4-chlorophenyl)-1-(tetrahydro-2H-pyran-4-yl)pyrrolidin-3-yl]carbonyl}-5-[(4-methylpiperazin-1-yl)carbonyl]pyrrolidin-3-yl}-N-(4-methylcyclohexyl)acetamide]: the EC50 fell in the range of 0.1 to 10 nM.

Consider `CN1CCN(C(=O)[C@H]2C[C@H](N(C(=O)[C@@H]3CCCO3)C3CCC(C)(C)CC3)CN2C(=O)[C@@H]2CN(C3CC3)C[C@H]2c2ccc(Cl)cc2)CC1` [Example 55, (2S)-N-{(3S,5R)-1-{[(3S,4R)-4-(4-chlorophenyl)-1-cyclopropylpyrrolidin-3yl]carbonyl}-5-[(4-methylpiperazin-1-yl)carbonyl]pyrrolidin-3-yl}-N-(4,4-dimethylcyclohexyl)tetrahydrofuran-2-carboxamide], for which the EC50 lay in the range of 10 to 100 nM.

On to `CN1CCN(C(=O)[C@@H]2C[C@H](N(C(=O)[C@@H]3CCCO3)[C@H]3CC[C@@H](C)CC3)CN2C(=O)[C@@H]2CN(C3CC3)C[C@H]2c2ccc(Cl)cc2)CC1` [Example 56, (2S)-N-{(3S,5S)-1-{[(3S,4R)-4-(4-chlorophenyl)-1-cyclopropylpyrrolidin-3-yl]carbonyl}-5-[(4-methylpiperazin-1-yl)carbonyl]pyrrolidin-3-yl}-N-(cis-4-methylcyclohexyl)tetrahydrofuran-2-carboxamide], for which the 50% effective concentration (EC50) lay in the range of 10 to 100 nM.

As for `CN1CCN(C(=O)[C@H]2C[C@H](N(C(=O)[C@@H]3CCCO3)[C@H]3CC[C@@H](C)CC3)CN2C(=O)[C@@H]2CN(C3CC3)C[C@H]2c2ccc(Cl)cc2)CC1` [Example 57, (2S)-N-{(3S,5R)-1-{[(3S,4R)-4-(4-chlorophenyl)-1-cyclopropylpyrrolidin-3-yl]carbonyl}-5-[(4-methylpiperazin-1-yl)carbonyl]pyrrolidin-3-yl}-N-(cis-4-methylcyclohexyl)tetrahydrofuran-2-carboxamide], the EC50 lay in the range of 10 to 100 nM.

For the compound `CN1CCN(C(=O)[C@@H]2C[C@H](N(C(=O)C(C)(C)CO)C3CCC(C)(C)CC3)CN2C(=O)[C@@H]2CN(C3CC3)C[C@H]2c2ccc(Cl)cc2)CC1` [Example 58, N-{(3S,5S)-1-{[(3S,4R)-4-(4-chlorophenyl)-1-cyclopropylpyrrolidin-3-yl]carbonyl}-5-[(4-methylpiperazin-1-yl)carbonyl]pyrrolidin-3-yl}-N-(4,4-dimethylcyclohexyl)-3-hydroxy-2,2-dimethylpropanamide], the EC50 is 0.1 to 10 nM.

On to `CN1CCN(C(=O)[C@@H]2C[C@H](N(C(=O)C(C)(C)CO)[C@H]3CC[C@@H](C)CC3)CN2C(=O)[C@@H]2CN(C3CC3)C[C@H]2c2ccc(Cl)cc2)CC1` [Example 59, N-{(3S,5S)-1-{[(3S,4R)-4-(4-chlorophenyl)-1-cyclopropylpyrrolidin-3-yl]carbonyl}-5-[(4-methylpiperazin-1-yl)carbonyl]pyrrolidin-3-yl}-N-(cis-4-methylcyclohexyl)-3-hydroxy-2,2-dimethylpropanamide], for which the EC50 was 0.1 to 10 nM.

With `CN1CCN(C(=O)[C@@H]2C[C@H](N(C(=O)C(C)(C)CO)[C@H]3CC[C@@H](C)CC3)CN2C(=O)[C@@H]2CN(C3CC3)C[C@H]2c2ccc(F)cc2F)CC1` [Example 60, N-{(3S,5S)-1-{[(3S,4R)-1-cyclopropyl-4-(2,4-difluorophenyl)pyrrolidin-3-yl]carbonyl}-5-[(4-methylpiperazin-1-yl)carbonyl]pyrrolidin-3-yl}-N-(cis-4-methylcyclohexyl)-3-hydroxy-2,2-dimethylpropanamide], the concentration for a half-maximal effect (EC50) lay within 0.1 to 10 nM.

The record behind these values is US8183243B2, “Melanocortin receptor agonists” (LG Life Sciences Ltd., priority 2008, dated 2012).
